Results reported in publication PMC6286365 (Scientific Reports, 2018).
Read-outs that look alike come from different tables or passages of the source.

Tests used:
[1] = test system: nSMase2; design: method as in PMID 28377412; conditions: co-injection with IL-1β; cited from earlier work
[2] = test system: nSMase2; conditions: cited from earlier work
[3] = target: T1, human nSMase2 (Homo sapiens, UniProt Q9NY59); assay: biochemical
T1 sequence (Q9NY59 1-655): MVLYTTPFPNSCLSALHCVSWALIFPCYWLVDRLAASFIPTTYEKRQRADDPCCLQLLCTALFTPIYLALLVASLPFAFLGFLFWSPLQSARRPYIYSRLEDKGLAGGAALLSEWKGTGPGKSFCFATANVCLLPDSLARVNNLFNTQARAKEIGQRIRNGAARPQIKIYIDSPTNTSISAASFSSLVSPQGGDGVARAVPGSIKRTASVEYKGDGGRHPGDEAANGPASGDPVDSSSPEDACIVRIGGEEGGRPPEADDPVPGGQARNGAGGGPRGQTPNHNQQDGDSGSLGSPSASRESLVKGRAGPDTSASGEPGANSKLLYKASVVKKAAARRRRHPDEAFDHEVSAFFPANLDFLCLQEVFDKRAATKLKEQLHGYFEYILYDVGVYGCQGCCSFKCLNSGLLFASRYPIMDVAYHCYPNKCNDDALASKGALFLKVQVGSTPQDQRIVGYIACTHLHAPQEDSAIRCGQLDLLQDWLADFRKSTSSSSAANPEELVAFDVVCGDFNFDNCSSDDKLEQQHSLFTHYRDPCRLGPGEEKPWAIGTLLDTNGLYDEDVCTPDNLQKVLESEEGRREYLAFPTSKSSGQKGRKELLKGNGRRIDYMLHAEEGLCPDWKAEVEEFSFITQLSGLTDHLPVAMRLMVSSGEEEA

[4] = cited from earlier work
[5] = cited from earlier work; remark: listed apart in the source
[6] = test system: GFAP-GFP mice; assay: Striatal IL-1β brain inflammation model: GFP-labeled astrocyte-derived EVs in plasma; type: in vivo, mouse; conditions: 10 mg/kg IP 0.5 h before IL-1β, 2 h post IL-1β
Description: As we have previously shown[11],[18], striatal injection of IL-1β in mice expressing GFP-GFAP in astroglia triggers a release of GFP-labelled EVs that rapidly enter into plasma, resulting in cytokine upregulation in liver and peripheral immune cell migration into brain[11]. […] There were two groups of mice: the first group was sacrificed 2 h after IL-1β administration by heart puncture, and GFP-labeled circulating EVs were measured with liver cytokines. […] Counting of astrocyte-released EV (GFP+) from blood and liver cytokine analysis was conducted by single injection of DPTIP. Although release of EVs from astrocytes can be initiated immediately after intracranial injection of IL-1β, infiltration of neutrophils in brain parenchyma occurred 12h-24h after the IL-1β injection. […] Western analysis using the isolated exosomal fraction confirmed the presence of CD63 (transmembrane protein), TSG101 (cytosolic protein) and Flotilin-1 (lipid raft associated protein), commonly used EV markers[19],[20]. The GFP signal was an indication that these EVs originated in brain[11] while lack of mitofilin and α-actinin signals indicated the vesicles were not of mitochondrial[21] or cytoskeletal[22] origin respectively (Fig. 6B).
Compounds were given 0.5 h before IL-1β dosing. One group of mice was sacrificed 2 h after IL-1β administration to determine effects of the various treatments on extracellular vesicles (EVs) releases from brain and liver cytokine analysis. […] (C) Liver cytokine levels under different treatments as measured by qRT-PCR of RNA isolated from fresh frozen liver tissue. Samples were analyzed in triplicate. **p < 0.01 and *p < 0.05 compared to saline control; ^##p < 0.01 and ^#p < 0.05 compared to IL1-β group. (D) Neutrophil levels in brain as measured by immunohistochemistry using coronal brain sections and Ly6b antibody. (E) Quantitation of (D); **p < 0.01 compared to saline control; ^##p < 0.01 compared to IL1-β group. […]

[7] = test system: primary astrocytes; assay: Inhibition of EV release from primary astrocytes (FBS withdrawal, nanoparticle tracking); type: cell-based, rat; conditions: 2 h treatment, dose range of concentrations
Description: (§1) Independent laboratories have shown that pharmacological and genetic inhibition of nSMase2 blocks EV secretion from glial cells. […] Two hours after treatment, EVs were isolated from the media and quantified by nanoparticle tracking analysis. […] Cells were fixed and immunofluorescence labeling for GFAP was performed.
(§2) Media was collected after 2 h incubation and centrifuged at 2700 × g for 15 min at 4 °C. Supernatant was collected and the number of extracellular vesicles (EVs) was quantified using ZetaView Nanoparticle Tracker. The mean concentration of EVs/mL (±SEM) was calculated from 4 replicate experiments. […] Astrocytes grown in complete medium were used as no treatment control. Cells were fixed and stained with anti-GFAP antibody (1:500, Sigma). Fluorescence intensity was measured using Image J. (C) Quantitation of fluorescence in (B). Bar graph represents background corrected mean fluorescence intensity measured from 100 astrocytes per condition. Error bars represent standard error of mean. One-way ANOVA followed by Tukey’s posthoc test was performed.
Potential inhibition of test compounds on EV release from primary astrocytes was carried out as previously described (Dickens et al., 2017). Briefly, rat primary astrocytes were seeded onto 6-well plates at a density of 20,000 cells/well. Twenty-four hours after seeding, astrocytes were washed with PBS and the medium changed to media without FBS. Absence of FBS mimics a trophic factor withdrawal stimulus causing EVs to be released from astrocytes via an nSMase2-dependent pathway. […] The supernatant was collected and the number of EVs quantified using ZetaView Nanoparticle Tracker (Particle Metrix GmBH, Meerbusch, Germany) and the corresponding ZetaVeiw software (8.03.04.01). Nanosphere size standard 100 nm (Thermo Scientific) was used to calibrate the instrument prior to sample readings. […] For each sample 1 mL of the supernatant was injected into the sample-carrier cell and the particle count measured at 5 positions, with 2 cycles of reading per position. […] Mean concentration of EVs/mL (±SEM) was calculated from 4 replicates.

[8] = test system: Rat primary astrocytes; assay: Astrocyte activation, GFAP immunofluorescence (+/-) serum deprivation; type: cell-based; conditions: 10 μM, 2 h
Description: as §1, §2

Compound: COc1cc(O)c(C(=O)O)c(-c2cc(O)c(O)cc2C)c1 [altenusin]
- effect on neutrophil infiltration into brain parenchyma [1]: suppress neutrophil infiltration

Compound: COc1ccc(NC2CCCN(C(=O)CCc3ccccc3F)C2)cc1 (centres unmarked) [MLS001002546]
- IC50 [3]: 10 µM

Compound: COc1ccc(S(=O)(=O)N(C(=O)C(C)C)c2ccc3oc(=O)sc3c2)cc1 [MLS000521532]
- IC50 [3]: 10 µM

Compound: O=c1[nH]c(=S)[nH]c(-c2ccccc2)c1Cc1c(O)ccc2ccccc12 [Cambinol]
- in vivo pharmacokinetic profile [4]: poor in vivo pharmacokinetic profile
- metabolic stability [5]: metabolically unstable

Compound: COc1cc(OC)cc(-c2nc(-c3cccs3)c(-c3ccccc3)[nH]2)c1 [des-hydroxyl analog]
- effect on IL-1β-induced EV release [6]: no difference
- effect on IL-1β-induced EV release ([6]; listed as inactive analog): no statistically significant effect
- effect on EV release from primary astrocytes ([7]; listed as des hydroxyl inactive analog of DPTIP): did not inhibit EV release
- effect on EV release from primary astrocytes ([7]; listed as inactive analog): no effect on EV release
- effect on GFAP levels without serum starvation ([8]; no serum starvation): did not change GFAP levels
- effect on astrocyte activation (GFAP) in response to serum starvation ([8]; with serum deprivation): failed to prevent astrocyte activation
